Reference: patent publication US20190008957A1, “COMBINATION THERAPIES INCLUDING INHIBITORS OF THE EXTRACELLULAR DOMAIN OF E-CADHERIN” (The Research Foundation for The State of New York, priority 2012, published 2019)

Experiments:
[1] = tested on: MEK1/2, ERK1/2, PI3K, Akt, mTOR, p70S6K, 4EBP1; assay: Western blot of downstream MAPK-PI3K/Akt/mTOR signaling in SCC cell lines; format: cell-based
Protocol: (§3) After brief sonication, lysates were cleared by centrifugation at 4° C. […] After transfer to nitrocellulose membrane and blocking with 1% BSA, samples were probed with primary antibodies. Western blot images were captured using HP Scanjet G4050 and analyzed relative to G3PDH or actin using NIH Scion Image.
(§4) Antibodies against total HER1 and HER 4 and phosphorylated HER1-4, pPI3K, pAkt, pmTOR, p4E-BP1, pRaptor and pp70S6K obtained from Cell Signaling Technologies. Monoclonal antibodies to HER3 and HER4 were obtained from Thermo Scientific. Polyclonal antibody to the extracellular domain of E-cadherin and monoclonal antibody to α-actin were obtained from Santa Cruz Biotechnology. Monoclonal antibody to the extracellular domain of E-cadherin (DECMA-1) and to His Tag were obtained from Sigma and Abcam, respectively. Monoclonal antibody to G3PDH, ubiquitin and rat IgG1 were obtained from Ambion, Zymed and Southern Biotechnology, respectively.

[2] = tested on: HER1, HER2, IGF-1R; assay: Western blot of receptor phosphorylation in skin and oropharyngeal SCC cell lines; format: cell-based; details: PAM212 cells
Protocol: as §3, §4

[3] = tested on: survivin; details: HER2-positive tumors from patients; cited from earlier work
[4] = tested on: oropharyngeal FADU and skin SCC (PAM212, CC4A, SCC13 and SCC12b) cell lines; assay: Proliferation in oropharyngeal and skin SCC cell lines; format: cell-based
Protocol: (§1) For BrdU staining, cells were incubated with 10 μM BrdU for 2 h prior to fixation and processed for immunofluorescence microscopy as previously described (Brouxhon et al., Cancer Res. 67:7654-64, 2007). For BrdU analyses, cells were counted from 6 low-power fields (×100) per section. BrdU incorporation was also analyzed by a cell proliferation ELISA 5-bromo-2′-deoxyuridine (BrdU) (colorimetric) kit (Roche, Stockholm, Sweden), according to the manufacturer's instructions. Migration and invasion of cells were measured using 8.0 μm pore BD BioCoat Control Insert 24-well plates (no. 354578) and Matrigel Invasion Chamber 24-well Plates (no. 354480), respectively (BD Bioscience). Cells were collected, washed, and 2×10^5 cells were plated in 0.4% FBS medium in the top chamber, with 0-20 μg/mL of rhEcad/Fc in the bottom chamber. After 22 h, cells on the top were removed using a cotton swab. Migrated or invaded cells on the lower surface were fixed with methanol, stained with 0.5% crystal violet, examined by bright field microscopy and photographed. Migration or invasion was quantitated by counting migrated or invaded cells in at least ten random high-power fields per insert and expressed as averages. Results are presented as fold change of the number of migrated/invaded cells to the untreated controls in triplicate experiments.

[5] = tested on: HER2 overexpressing BT474 cells; details: cited from earlier work
[6] = tested on: skin (PAM212, CC4A, SCC12b, SCC13) and oropharyngeal (FADU) cells; assay: Transwell migration of SCC cells; format: cell-based
Protocol: as §1

[7] = tested on: MCF-7, SKBR3 and MDA-MB-231 breast cancer cell lines; assay: BrdU proliferation in breast cancer cell lines; format: cell-based, human; details: for proliferation: MCF-7 cells, 24 h, equimolar concentrations
Protocol: as §1

[8] = tested on: skin (SCC12b, SCC13, PAM212 and CC4A) and the head & neck FADU cell line; assay: Matrigel invasion of SCC cells; format: cell-based
[9] = tested on: MMP-2 and MMP-9; assay: MMP-9 ELISA and gelatin zymography of conditioned media; format: cell-based, mouse; details: PAM212 cells; inhibitors either alone or in combination
Protocol: Conditioned media from control or sEcad treated cells were concentrated 10-fold using Centricon devices (Millipore; Bedford, Mass.) according to the manufacturer's instructions and applied to SDS-PAGE gels containing gelatin (0.1% w/v). Gels were washed twice in renaturing buffer (Invitrogen) and incubated at 37° C. for 24 h in developing buffer (Invitrogen). Gels were stained with Coomassie blue and destained with methanol:acetic acid (50:10). Zymogram is representative of triplicate experiments.
Conditioned media from human and mouse cells were analyzed for MMP-9 using human and mouse […] Quantikine ELISA Kits and mouse MMP-9 ELISA kit (R&D Systems, Minneapolis, Minn.), according to the manufacturer's specifications, respectively. For measuring mouse MMP-9, serum-free medium was added to cell cultures and cells were exposed to increasing concentrations of sEcad (rmEcad/Fc; R&D Systems) for 24 hours. The culture media were collected and concentrated using Centrifugal Ultra Filters (Millipore, Billerica, Mass.) and MMP-9 levels were measured by ELISA. Each experiment was performed in triplicate.

[10] = tested on: HER1-4; assay: Western blot of HER phosphorylation in breast cancer cells; format: cell-based, human
From the text: (§2) The association of sEcad with these RTK was also confirmed by in vitro studies. Specifically, in cell culture systems, extracts from sEcad (rhEcad/Fc:His tagged) treated E-cadherin positive MCF-7 and E-cadherin negative SKBR3 and MDA-MB-231 breast cancer cells were immunoprecipitated with HER1-4-specific antibodies and analyzed by western blotting with a His-tagged-specific antibody. Here, we detected HER1-4-sEcad, HER1-2-sEcad and HER1-sEcad interactions in MCF, SKBR3 and MDA-MB-231 breast cancer cells, respectively. […] Because ligand binding to the HER family of receptors induces the formation of homo- and heterodimers, resulting in phosphorylation on specific tyrosine residues within the cytoplasmic domain (Yarden and Siliwkowski, Nature Reviews. 2:127-137, 2001), we next used western blot assays to examine whether sEcad promotes HER phosphorylation and downstream signaling.
Immunoprecipitation assays were carried out by harvesting tissues or cells with immunoprecipitation lysis buffer (20 mM Tris-HCl, pH 7.5; 137 mM NaCl; 100 mM NaF; 10% glycerol (vol/vol); 1% (vol/vol) Nonidet P-40; 1 mM PMSF and protease inhibitor cocktail (Sigma)). After brief sonication, lysates were cleared by centrifugation at 4° C. […] Western blot images were captured using HP Scanjet G4050 and analyzed relative to G3PDH or actin using NIH Scion Image. […]

[11] = tested on: MDA-MB-231 and MCF-7 breast cancer cells; assay: Matrigel invasion of breast cancer cells; format: cell-based, human; details: MCF-7 cells, 24 h, equimolar concentrations
Protocol: as §1, with “After 22 h, cells on the top were removed using a cotton swab.” left out

[12] = tested on: breast (MCF-7, SKBR3) cells; assay: Transwell migration of breast cancer cells; format: cell-based, human; details: MCF-7 cells, 24 h, equimolar concentrations
Protocol: as §1, with “After 22 h, cells on the top were removed using a cotton swab.” left out

[13] = tested on: ERK1/2, PI3K/Akt, mTOR, p70S6K, 4EBP1; assay: Western blot of downstream MAPK-PI3K/Akt/mTOR signaling in breast cancer cell lines; format: cell-based, human
From the text: We speculated that this effect may be mediated by molecular abnormalities in signaling pathways that promote cell growth downstream of HERs. Specifically, the lipid kinase phosphoinositide-3-kinase (PI3K) and the protein-serine/threonine kinases Akt, and mTOR signaling pathways are important mediators of HER receptor signaling and are causally involved in breast and other malignancies (Schmelzle and Hall, Cell 103:253-262, 2000). […] As the p70S6 kinase and eIF4E binding protein 1 (4EBP1) are among the most well characterized targets of mTOR (Schmelzle and Hall, Cell 103:253-262, 2000), we next studied the phosphorylation of p70S6K at Thr-389 and 4EBP1 at Thr-37 by western blotting.
Immunoprecipitation assays were carried out by harvesting tissues or cells with immunoprecipitation lysis buffer (20 mM Tris-HCl, pH 7.5; 137 mM NaCl; 100 mM NaF; 10% glycerol (vol/vol); 1% (vol/vol) Nonidet P-40; 1 mM PMSF and protease inhibitor cocktail (Sigma)). After brief sonication, lysates were cleared by centrifugation at 4° C. Supernatants were precleared and incubated with EGFR/HER1, HER2, HER3, HER4 or E-cadherin ectodomain-specific antibodies for 4 h and protein A/G plus agarose beads (Santa Cruz, sc-2003) for 2 h at 4° C. The immunocomplexes were washed three times, boiled in sample buffer (60 mM Tris-Cl, pH 6.8; 2% SDS (vol/vol); 10% glycerol (vol/vol); 5% […] (vol/vol); and 0.01% bromophenol blue (vol/vol), and loaded on SDS-PAGE for protein analysis. Protein extraction in cells was performed on ice using total protein extraction buffer: 20 mM Tris pH 7.5, 137 mM NaCl, 100 mM NaF, 10% glycerol, 1% NP40, 1 mM PMSF and protease inhibitor cocktail (Sigma). For normal and tumor tissues, sEcad was extracted in an aqueous solution (PBS) and not in the protein extraction buffer. Protein concentration was measured using a BCA Protein Assay Kit (Pierce). […] Western blot images were captured using HP Scanjet G4050 and analyzed relative to G3PDH or actin using NIH Scion Image. […]

[14] = tested on: HER1-4; assay: Immunoprecipitation of sEcad with HER receptors in breast cancer cells; format: binding, human
From the text: as §2
Immunoprecipitation assays were carried out by harvesting tissues or cells with immunoprecipitation lysis buffer (20 mM Tris-HCl, pH 7.5; 137 mM NaCl; 100 mM NaF; 10% glycerol (vol/vol); 1% (vol/vol) Nonidet P-40; 1 mM PMSF and protease inhibitor cocktail (Sigma)). After brief sonication, lysates were cleared by centrifugation at 4° C. […] The immunocomplexes were washed three times, boiled in sample buffer (60 mM Tris-Cl, pH 6.8; 2% SDS (vol/vol); 10% glycerol (vol/vol); 5% […] (vol/vol); and 0.01% bromophenol blue (vol/vol), and loaded on SDS-PAGE for protein analysis. Protein extraction in cells was performed on ice using total protein extraction buffer: 20 mM Tris pH 7.5, 137 mM NaCl, 100 mM NaF, 10% glycerol, 1% NP40, 1 mM PMSF and protease inhibitor cocktail (Sigma). For normal and tumor tissues, sEcad was extracted in an aqueous solution (PBS) and not in the protein extraction buffer. Protein concentration was measured using a BCA Protein Assay Kit (Pierce). […] Western blot images were captured using HP Scanjet G4050 and analyzed relative to G3PDH or actin using NIH Scion Image.

[15] = PAM212 skin SCC cells, HER inhibitors
[16] = PAM212 cells, PI3K or MEK inhibitor 20 μM

CS(=O)(=O)CCNCc1ccc(-c2ccc3ncnc(Nc4ccc(OCc5cccc(F)c5)c(Cl)c4)c3c2)o1 [Lapatinib]
sEcad-induced phosphorylation of 4EBP1 ([1]; PAM212 cells): minimal changes
sEcad-induced phosphorylation of ERK1/2, Akt and p70S6K ([1]; PAM212 cells): significantly down-regulated
sEcad-induced phosphorylation of PI3K ([1]; PAM212 cells): minimal changes
sEcad-induced HER1 phosphorylation [2]: significantly down-regulated
sEcad-induced HER2 phosphorylation (pHER2) [2]: minimal changes
phospho-IGF-1R levels ([2]; in the presence of sEcad, compared to corresponding controls): did not alter
survivin expression levels in tumors [3]: marked inhibition of survivin expression levels
sEcad-induced proliferation [4, 15]: effectively inhibited sEcad-induced proliferation, migration and invasion
apoptosis [5]: induced apoptosis
survivin expression [5]: markedly reduced survivin expression
sEcad-induced migration [6, 15]: effectively inhibited sEcad-induced proliferation, migration and invasion
basal and sEcad-induced BrdU incorporation ([7]; breast cancer cells, Canertinib 1 μM, Lapatinib 5 μM, Gefitinib 5 μM): significantly reduced both basal and sEcad-induced BrdU incorporation
sEcad-induced invasion [8, 15]: effectively inhibited sEcad-induced proliferation, migration and invasion

COc1cccc(-c2cc(=O)c3ccccc3o2)c1N [PD98059]
Akt phosphorylation by sEcad in the presence of the inhibitor ([1]; PAM212 cells, inhibitor 20 μM): enhanced
ERK1/2 phosphorylation ([1]; PAM212 cells, inhibitor 20 μM): decreased ERK1/2 phosphorylation
mTOR/p70S6K/4EBP1 phosphorylation ([1]; PAM212 cells, inhibitor 20 μM, even in the absence of rmEcad/Fc): increased
sEcad-induced activation of MMP-2 and MMP-9 [9]: significantly inhibited sEcad-induced activation of MMP-2 and MMP-9
sEcad-induced PAM212 proliferation ([4]; PAM212 cells, inhibitor 20 μM): less significant effects
sEcad-induced migration [6, 16]: blocked
sEcad-induced invasion [8, 16]: blocked

rhEGF: Recombinant human EGF (Enzo Life Sciences) (NSDSECPLSHDGYCLHDGVCMYIEALDKYACNCVVGYIGERCQYRDLKWWELR)
HER1 and ERK1/2 phosphorylation ([10]; MCF-7 cells, equimolar concentrations, compared to sEcad alone): more potent effects on HER1 and ERK1/2 phosphorylation
invasion [11]: significantly increased proliferation, migration and invasion
migration [12]: significantly increased proliferation, migration and invasion
proliferation [7]: significantly increased proliferation, migration and invasion

rhEcad/Fc: Recombinant human E-cadherin Fc chimera; extracellular domain residues 155-707 fused to human IgG1 Fc, 6x histidine-tagged
HER1-4 phosphorylation ([10]; MCF-7 and SKBR3 cells, 26 h after stimulation): notably increased
invasion [11]: significantly increased proliferation, migration and invasion
phosphorylated p70S6K (Thr-389) and 4EBP1 (Thr-37) levels ([1]; PAM212, CC4A cells versus untreated controls): higher
phosphorylated p70S6K (Thr-389) and 4EBP1 (Thr-37) levels ([13]; MCF-7, SKBR3 cells versus untreated controls): higher
ERK1/2, PI3K/Akt and mTOR activation ([13]; MCF-7 and SKBR3 cells): activation of ERK1/2, PI3K/Akt and mTOR
Akt activation ([13]; MDA-MB-231 TNBC cells): activation
receptors interacting with sEcad ([14]; MCF-7 cells (E-cadherin positive)): HER1-4-sEcad
receptors interacting with sEcad ([14]; MDA-MB-231 cells (E-cadherin negative)): HER1-sEcad
receptors interacting with sEcad ([14]; SKBR3 cells (E-cadherin negative)): HER1-2-sEcad
migration [12]: significantly increased proliferation, migration and invasion
BrdU incorporation ([7]; 10 and 20 μg/mL, MCF-7, SKBR3 and MDA-MB-231): significantly increased
proliferation [7]: significantly increased proliferation, migration and invasion
